Consider 40 molecules from patent US8940731B2, “Substituted pyridyl amide compounds as modulators of the histamine H3 receptor” (Janssen Pharmaceutica NV, priority 2006, dated 2015).

The test addresses T1, cloned human H3 receptors (Homo sapiens, UniProt Q9Y5N1).
T1 construct: expressed in transfected cells
As to the kind of experiment: H3 Receptor Binding (Human). The method, then: H3 Receptor Binding (Human)
Binding of compounds to the cloned human H3 receptors, stably expressed in SK-N-MC cells, was performed as described by Barbier, A. J. et al. (Br. J. Pharmacol. 2004, 143(5), 649-661).

The mark [1] stands for this setting: bromo-pyridine intermediates (Step A), value given in the synthesis, read-out: Assay 1 (Human H3): Ki.
The mark [2] stands for this setting: cloned human H3 receptors stably expressed in SK-N-MC cells, average of the results obtained, read-out: Human H3 Ki.

Counter-ions that a name gives are not always drawn. Like-named read-outs stand apart in the source and are kept apart here.

T1 sequence (Q9Y5N1 whole entry): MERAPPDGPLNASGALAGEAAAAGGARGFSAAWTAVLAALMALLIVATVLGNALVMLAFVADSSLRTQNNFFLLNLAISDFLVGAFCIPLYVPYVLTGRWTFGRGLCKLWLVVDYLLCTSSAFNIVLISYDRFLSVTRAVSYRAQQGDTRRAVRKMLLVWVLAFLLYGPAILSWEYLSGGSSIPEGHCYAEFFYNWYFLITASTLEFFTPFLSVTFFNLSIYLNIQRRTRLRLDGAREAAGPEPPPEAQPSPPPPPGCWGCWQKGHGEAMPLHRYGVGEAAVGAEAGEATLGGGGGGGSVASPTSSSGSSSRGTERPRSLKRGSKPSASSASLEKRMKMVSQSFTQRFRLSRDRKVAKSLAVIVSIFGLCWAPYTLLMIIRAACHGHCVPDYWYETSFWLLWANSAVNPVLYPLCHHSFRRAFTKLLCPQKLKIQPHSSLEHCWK

Consider `O=C(c1ccc(Br)cn1)N1CCCN(C2CCC2)CC1` [(5-Bromo-pyridin-2-yl)-(4-cyclobutyl-[1,4]diazepan-1-yl)-methanone], for which the Ki under setting [1] is 11 nM.

Take `O=C(c1ccc(Br)cn1)N1CCCN(C2CC2)CC1` [(5-Bromo-pyridin-2-yl)-(4-cyclopropyl-[1,4]diazepan-1-yl)-methanone]: under setting [1], the Ki came to 115 nM.

As to `CC(C)N1CCCN(C(=O)c2ccc(Br)cn2)CC1` [(5-Bromo-pyridin-2-yl)-(4-isopropyl-[1,4]diazepan-1-yl)-methanone], under setting [1], the inhibition constant (Ki) was found to be 194 nM.

`O=C(c1cccc(Br)n1)N1CCCN(C2CCC2)CC1` [(6-Bromo-pyridin-2-yl)-(4-cyclobutyl-[1,4]diazepan-1-yl)-methanone]: the Ki under setting [1] is 33 nM.

For the molecule `O=C(c1cccc(Br)n1)N1CCCN(C2CC2)CC1` [(6-Bromo-pyridin-2-yl)-(4-cyclopropyl-[1,4]diazepan-1-yl)-methanone], under setting [1], the Ki amounted to 431 nM.

Consider `CC(C)N1CCCN(C(=O)c2cccc(Br)n2)CC1` [(6-Bromo-pyridin-2-yl)-(4-isopropyl-[1,4]diazepan-1-yl)-methanone], for which the Ki under setting [1] was 752 nM.

Regarding `CC(C)N1CCN(C(=O)c2cccc(Br)n2)CC1` [(6-Bromo-pyridin-2-yl)-(4-isopropyl-piperazin-1-yl)-methanone], the Ki under setting [1] worked out at 1400 nM.

As for `CC(C)N1CCN(C(=O)c2ccc(Oc3ccc(Cl)c(Cl)c3)nc2)CC1` [Example 1, [6-(3,4-Dichloro-phenoxy)-pyridin-3-yl]-(4-isopropyl-piperazin-1-yl)-methanone], the Ki under setting [2] was 29 nM.

With `CC(C)N1CCN(C(=O)c2ccc(Oc3cccnc3)nc2)CC1` [Example 2, (4-Isopropyl-piperazin-1-yl)-[6-(pyridin-3-yloxy)-pyridin-3-yl]-methanone], the Ki under setting [2] was found to be 56 nM.

As to `CSc1ccc(Oc2ccc(C(=O)N3CCN(C(C)C)CC3)cn2)cc1` [Example 3, (4-Isopropyl-piperazin-1-yl)-[6-(4-methylsulfanyl-phenoxy)-pyridin-3-yl]-methanone], the Ki under setting [2] is 66 nM.

On to `CC(C)N1CCN(C(=O)c2ccc(Oc3cccc(Cl)c3)nc2)CC1` [Example 4, [6-(3-Chloro-phenoxy)-pyridin-3-yl]-(4-isopropyl-piperazin-1-yl)-methanone], for which the Ki under setting [2] amounted to 56 nM.

In the case of `CC(C)N1CCN(C(=O)c2ccc(Oc3ccccc3)nc2)CC1` [Example 5, (4-Isopropyl-piperazin-1-yl)-(6-phenoxy-pyridin-3-yl)-methanone], under setting [2], the Ki was determined as 71 nM.

In the case of `Cc1cc(Oc2ccc(C(=O)N3CCN(C(C)C)CC3)cn2)ccc1Cl` [Example 6, [6-(4-Chloro-3-methyl-phenoxy)-pyridin-3-yl]-(4-isopropyl-piperazin-1-yl)-methanone], under setting [2], the Ki was found to be 32 nM.

Consider `CC(C)N1CCN(C(=O)c2ccc(Oc3cccc(C#N)c3)nc2)CC1` [Example 7, 3-[5-(4-Isopropyl-piperazine-1-carbonyl)-pyridin-2-yloxy]-benzonitrile], for which the Ki under setting [2] was found to be 57 nM.

Regarding `CC(C)N1CCN(C(=O)c2ccc(Oc3ccc(Cl)cc3)nc2)CC1` [Example 8, [6-(4-Chloro-phenoxy)-pyridin-3-yl]-(4-isopropyl-piperazin-1-yl)-methanone], the Ki under setting [2] stood at 68 nM.

Regarding `O=C(c1ccc(Oc2ccc(Cl)cc2)nc1)N1CCCN(C2CC2)CC1` [Example 10, [6-(4-Chloro-phenoxy)-pyridin-3-yl]-(4-cyclopropyl-[1,4]diazepan-1-yl)-methanone], under setting [2], the Ki turned out to be 10 nM.

In the case of `CC(C)N1CCCN(C(=O)c2ccc(Oc3ccc(Cl)c(Cl)c3)nc2)CC1` [Example 15, [6-(3,4-Dichloro-phenoxy)-pyridin-3-yl]-(4-isopropyl-[1,4]diazepan-1-yl)-methanone], under setting [2], the Ki was determined as 8 nM.

In the case of `Cc1cc(Oc2ccc(C(=O)N3CCCN(C4CCC4)CC3)cn2)ccc1Cl` [Example 16, [6-(4-Chloro-3-methyl-phenoxy)-pyridin-3-yl]-(4-cyclobutyl-[1,4]diazepan-1-yl)-methanone], the Ki under setting [2] is 2 nM.

Regarding `Cc1cc(Oc2ccc(C(=O)N3CCCN(C(C)C)CC3)cn2)ccc1Cl` [Example 17, [6-(4-Chloro-3-methyl-phenoxy)-pyridin-3-yl]-(4-isopropyl-[1,4]diazepan-1-yl)-methanone], the Ki under setting [2] came out at 5 nM.

For the molecule `O=C(c1ccc(Oc2ccc(F)cc2)nc1)N1CCN(C2CC2)CC1` [Example 22, (4-Cyclopropyl-piperazin-1-yl)-[6-(4-fluoro-phenoxy)-pyridin-3-yl]-methanone], the Ki under setting [2] came out at 180 nM.

On to `CC(C)N1CCN(C(=O)c2ccc(Oc3ccc(F)c(F)c3)nc2)CC1` [Example 28, [6-(3,4-Difluoro-phenoxy)-pyridin-3-yl]-(4-isopropyl-piperazin-1-yl)-methanone], for which, under setting [2], the inhibitory constant (Ki) came out at 13 nM.

Consider `O=C(c1ccc(Oc2cc(Cl)cc(Cl)c2)nc1)N1CCCN(C2CCC2)CC1` [Example 33, (4-Cyclobutyl-[1,4]diazepan-1-yl)-[6-(3,5-dichloro-phenoxy)-pyridin-3-yl]-methanone], for which the Ki under setting [2] amounted to 1 nM.

`O=C(c1ccc(Oc2cc(F)ccc2F)nc1)N1CCCN(C2CC2)CC1` [Example 34, (4-Cyclopropyl-[1,4]diazepan-1-yl)-[6-(2,5-difluoro-phenoxy)-pyridin-3-yl]-methanone]: the Ki under setting [2] was found to be 5 nM.

With `O=C(c1ccc(Oc2cc(Cl)cc(Cl)c2)nc1)N1CCCN(C2CC2)CC1` [Example 35, (4-Cyclopropyl-[1,4]diazepan-1-yl)-[6-(3,5-dichloro-phenoxy)-pyridin-3-yl]-methanone], under setting [2], the Ki was determined as 3 nM.

For `CC(C)N1CCCN(C(=O)c2ccc(Oc3cccc(F)c3)nc2)CC1` [Example 38, [6-(3-Fluoro-phenoxy)-pyridin-3-yl]-(4-isopropyl-[1,4]diazepan-1-yl)-methanone], the Ki under setting [2] came out at 6 nM.

On to `CSc1ccc(Oc2ccc(C(=O)N3CCCN(C(C)C)CC3)cn2)cc1C` [Example 42, (4-Isopropyl-[1,4]diazepan-1-yl)-[6-(3-methyl-4-methylsulfanyl-phenoxy)-pyridin-3-yl]-methanone], for which the inhibitory constant (Ki) under setting [2] is 12 nM.

Turning to `CC(C)N1CCN(C(=O)c2cccc(Oc3ccc(Cl)c(Cl)c3)n2)CC1` [Example 43, [6-(3,4-Dichloro-phenoxy)-pyridin-2-yl]-(4-isopropyl-piperazin-1-yl)-methanone], under setting [2], the Ki amounted to 299 nM.

With `O=C(c1cccc(Oc2ccc(Cl)c(Cl)c2)n1)N1CCCN(C2CC2)CC1` [Example 44, (4-Cyclopropyl-[1,4]diazepan-1-yl)-[6-(3,4-dichloro-phenoxy)-pyridin-2-yl]-methanone], the Ki under setting [2] amounted to 327 nM.

For `O=C(c1cccc(Oc2ccc(Cl)c(Cl)c2)n1)N1CCCN(C2CCC2)CC1` [Example 45, (4-Cyclobutyl-[1,4]diazepan-1-yl)-[6-(3,4-dichloro-phenoxy)-pyridin-2-yl]-methanone], the inhibition constant Ki under setting [2] was 34 nM.

Turning to `CC(C)N1CCCN(C(=O)c2cccc(Oc3ccc(Cl)c(Cl)c3)n2)CC1` [Example 46, [6-(3,4-Dichloro-phenoxy)-pyridin-2-yl]-(4-isopropyl-[1,4]diazepan-1-yl)-methanone], under setting [2], the Ki was found to be 202 nM.

For `Cc1cc(Oc2cccc(C(=O)N3CCCN(C4CC4)CC3)n2)ccc1Cl` [Example 47, [6-(4-Chloro-3-methyl-phenoxy)-pyridin-2-yl]-(4-cyclopropyl-[1,4]diazepan-1-yl)-methanone trifluoroacetic acid salt], the Ki under setting [2] worked out at 357 nM.

`Cc1cc(Oc2cccc(C(=O)N3CCCN(C4CCC4)CC3)n2)ccc1Cl` [Example 48, [6-(4-Chloro-3-methyl-phenoxy)-pyridin-2-yl]-(4-cyclobutyl-[1,4]diazepan-1-yl)-methanone trifluoroacetic acid salt]: the Ki under setting [2] was found to be 67 nM.

Regarding `Cc1cc(Oc2cccc(C(=O)N3CCCN(C(C)C)CC3)n2)ccc1Cl` [Example 49, [6-(4-Chloro-3-methyl-phenoxy)-Pyridin-2-yl]-(4-isopropyl-[1,4]diazepan-1-yl)-methanone trifluoroacetic acid salt], the Ki under setting [2] amounted to 115 nM.

In the case of `CC(C)N1CCCN(C(=O)c2ccc(Oc3ccc(Cl)c(Cl)c3)cn2)CC1` [Example 50, [5-(3,4-Dichloro-phenoxy)-pyridin-2-yl]-(4-isopropyl-[1,4]diazepan-1-yl)-methanone trifluoroacetic acid salt], under setting [2], the Ki was 18 nM.

`CC(C)N1CCN(C(=O)c2ccc(Oc3ccc(Cl)c(Cl)c3)c(C#N)n2)CC1` [Example 53, 3-(3,4-Dichloro-phenoxy)-6-(4-isopropyl-piperazine-1-carbonyl)-pyridine-2-carbonitrile trifluoroacetic acid salt]: the Ki under setting [2] is 49 nM.

On to `CC(C)N1CCN(C(=O)c2ccc(Oc3ccc(Cl)c(Cl)c3)c(C(N)=O)n2)CC1` [Example 54, 3-(3,4-Dichloro-phenoxy)-6-(4-isopropyl-piperazine-1-carbonyl)-pyridine-2-carboxylic acid amide trifluoroacetic acid salt], for which, under setting [2], the Ki was found to be 104 nM.

Take `CSc1ccc(Oc2ccc(C(=O)N3CCCN(C4CC4)CC3)nc2C#N)cc1` [Example 55, 6-(4-Cyclopropyl-[1,4]diazepane-1-carbonyl)-3-(4-methylsulfanyl-phenoxy)-pyridine-2-carbonitrile]: the Ki under setting [2] was 21 nM.

For the molecule `N#Cc1nc(C(=O)N2CCCN(C3CC3)CC2)ccc1Oc1ccc(Cl)c(Cl)c1` [Example 58, 6-(4-Cyclopropyl-[1,4]diazepane-1-carbonyl)-3-(3,4-dichloro-phenoxy)-pyridine-2-carbonitrile], under setting [2], the Ki worked out at 10 nM.

As to `N#Cc1nc(C(=O)N2CCCN(C3CC3)CC2)ccc1Oc1cccc(F)c1` [Example 60, 6-(4-Cyclopropyl-[1,4]diazepane-1-carbonyl)-3-(3-fluoro-phenoxy)-pyridine-2-carbonitrile], the Ki under setting [2] came to 29 nM.

For `CSc1ccc(Oc2ccc(C(=O)N3CCCN(C4CC4)CC3)nc2C(N)=O)cc1` [Example 62, 6-(4-Cyclopropyl-[1,4]diazepane-1-carbonyl)-3-(4-methylsulfanyl-phenoxy)-pyridine-2-carboxylic acid amide], the Ki under setting [2] came to 36 nM.

Usually Ki stands for a measure of affinity in units of concentration, obtained from inhibition or displacement.
